Measured values taken from patent US12048703B2, “Use of small molecule FAK activators to promote mucosal healing” (Regents of the University of Minnesota, priority 2018, dated 2024).
“Also recorded” adds a separate entry of the source.

Columns and labels:
[1] = target: T1, Pyk2 (also called FAK2) (Homo sapiens, UniProt Q14289); test: Pyk2 activation (selectivity); format: cell-based; settings: up to 1000 nm (100× therapeutic threshold); listed as D3
T1 construct: endogenous in cells

[2] = test system: Caco-2 monolayers; test: Closure of circular wounds in Caco-2 monolayers on collagen I; format: cell-based, human; settings: for monolayer wound closure: Caco-2 on collagen I; for stimulation of wound closure under FAK blockade: with FAK inhibitor PF-573328 (10 uM)
[3] = target: T2, FAK (Homo sapiens, UniProt Q05397); test: FAK activation (FAK-Tyr-397 phosphorylation) by western blotting in Caco-2 cells in suspension; format: cell-based
T2 construct: endogenous in cells; host or cells: Caco-2
From the text: FAK-Y397 western blotting: For studies of FAK activation, cells were maintained at ambient or increased pressure in bacteriologic plastic dishes pacificated with heat-inactivated bovine serum albumin to prevent adhesion and avoid adhesion-associated background FAK activation. Cells were lysed in lysis buffer, resolved by 10% SDS-PAGE, transferred to nitrocellulose and blotted with antibody to Tyr-397-phosphorylated FAK (Rabbit monoclonal antibody, ab81298, Abcam, USA) and anti-rabbit 680 (LI-COR, USA), before quantitation using Kodak Scientific Imaging Systems 1D, V.3.5.4 within the linear range of exposure (Oncotarget 2017). Total FAK (Primary antibody: Anti-FAK, clone 4.47 Merck, Germany and secondary antibody: anti-mouse 800, LI-COR, USA) served as a protein loading control.

[4] = Toxicity assessment in acetic acid ulcer mice (weight, serum chemistry, histology); format: in vivo; settings: acetic acid ulcer model
Protocol: (§1) (A) The effects of dosing of compound D3 on murine intestinal ulcer healing was investigated. Brief serosal application of a filter paper disk soaked in dilute acetic acid was used to create well demarcated reproducible mucosal small bowel ulcerations without opening the bowel (47-49). In one study such murine ulcers were created, allowed 24 hours for recovery and ulcer formation, and then compound D3 was administered at 900 ug/kg Q6H for three days before sacrifice. […] Males and females responded similarly.

[5] = Body weight in indomethacin ulcer mice; format: in vivo; settings: indomethacin model, trend not statistically significant
Protocol: (§2) (B) Indomethacin ulcer healing. 15 mg/kg of indomethacin was administered subcutaneously, and treatment started with vehicle of drug 1 day after injury. At 4 days, ulcer area was calculated after sacrifice by morphometric analysis of photographs of the entire small bowel.

[6] = target: T3, Src (Homo sapiens, UniProt P12931); test: Src activation (selectivity); format: cell-based; settings: up to 1000 nm (100× therapeutic threshold); listed as D3
T3 construct: endogenous in cells

[7] = test system: small bowel ulcer; test: Indomethacin small bowel ulcer healing in mice; format: in vivo; settings: 4 days after indomethacin 15 mg/kg subQ, listed as D3
Protocol: as §2

[8] = test system: ileal ulcer; test: Serosal acetic acid ileal ulcer healing in mice; format: in vivo; settings: vs DMSO vehicle, listed as D3
Protocol: An in vivo study was conducted utilizing C57BL6 Male/Female>8-week-old mice. During laparotomy under anesthesia, a filter paper soaked with 75% Acetic Acid was applied to ileal serosa for 15 seconds, a technique that produces reproducible mucosal ulcers at day 4 without opening the bowel. Flanigan T L et al., Am J Surg. 2008 November; 196(5): 683-689. doi:10.1016/j.amjsurg.2008.07.016.
At 1 day after ulcerogenesis, an intraperitoneal (IP) administration of Q6H-DMSO (2.4 ul+97.6 ul saline) was performed in a control sample, along with an IP injection of Q6H—Compound 3 (10 ug/ul) (2.4 ul+97.6 ul saline) in a test sample.
At 4 days after ulcerogenesis (day 3 after starting administration), the ulcer area was measured in each. The observed ulcer area and corresponding wound closure rate in vivo further evidences the effect of Compound 3.
as §1

[9] = target: T4, PTP1B-FAK interaction (Homo sapiens, UniProt Q05397); test: PTP1B-FAK interaction by FAK immunoprecipitation and Western for PTP1B; format: cell-based; settings: 10 nM; co-precipitation; listed as D3
T4 construct: endogenous in cells; host or cells: Caco-2 (inferred)

[10] = target: T5, SHP2 (Homo sapiens, UniProt Q06124); test: SHP2 dephosphorylation of a synthetic substrate; format: biochemical
T5 sequence (Q06124 1-593): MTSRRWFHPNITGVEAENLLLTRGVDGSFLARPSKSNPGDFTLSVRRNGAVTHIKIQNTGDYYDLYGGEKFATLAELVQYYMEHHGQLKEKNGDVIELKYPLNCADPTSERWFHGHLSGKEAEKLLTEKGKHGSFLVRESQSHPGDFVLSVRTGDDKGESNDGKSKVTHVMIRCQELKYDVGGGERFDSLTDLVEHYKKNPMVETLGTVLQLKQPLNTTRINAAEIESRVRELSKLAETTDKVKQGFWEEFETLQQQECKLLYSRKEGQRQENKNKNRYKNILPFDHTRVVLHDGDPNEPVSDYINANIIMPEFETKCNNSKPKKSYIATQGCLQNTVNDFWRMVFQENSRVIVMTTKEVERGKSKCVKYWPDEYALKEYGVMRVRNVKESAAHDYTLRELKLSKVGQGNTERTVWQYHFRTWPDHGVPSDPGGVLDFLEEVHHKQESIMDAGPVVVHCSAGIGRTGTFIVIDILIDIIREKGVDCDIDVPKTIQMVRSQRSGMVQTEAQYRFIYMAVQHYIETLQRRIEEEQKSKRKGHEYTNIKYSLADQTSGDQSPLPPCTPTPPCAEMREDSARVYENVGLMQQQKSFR

[11] = test system: Caco-2 cells; test: Caco-2 proliferation; format: cell-based, human

T2 sequence (Q05397 whole entry): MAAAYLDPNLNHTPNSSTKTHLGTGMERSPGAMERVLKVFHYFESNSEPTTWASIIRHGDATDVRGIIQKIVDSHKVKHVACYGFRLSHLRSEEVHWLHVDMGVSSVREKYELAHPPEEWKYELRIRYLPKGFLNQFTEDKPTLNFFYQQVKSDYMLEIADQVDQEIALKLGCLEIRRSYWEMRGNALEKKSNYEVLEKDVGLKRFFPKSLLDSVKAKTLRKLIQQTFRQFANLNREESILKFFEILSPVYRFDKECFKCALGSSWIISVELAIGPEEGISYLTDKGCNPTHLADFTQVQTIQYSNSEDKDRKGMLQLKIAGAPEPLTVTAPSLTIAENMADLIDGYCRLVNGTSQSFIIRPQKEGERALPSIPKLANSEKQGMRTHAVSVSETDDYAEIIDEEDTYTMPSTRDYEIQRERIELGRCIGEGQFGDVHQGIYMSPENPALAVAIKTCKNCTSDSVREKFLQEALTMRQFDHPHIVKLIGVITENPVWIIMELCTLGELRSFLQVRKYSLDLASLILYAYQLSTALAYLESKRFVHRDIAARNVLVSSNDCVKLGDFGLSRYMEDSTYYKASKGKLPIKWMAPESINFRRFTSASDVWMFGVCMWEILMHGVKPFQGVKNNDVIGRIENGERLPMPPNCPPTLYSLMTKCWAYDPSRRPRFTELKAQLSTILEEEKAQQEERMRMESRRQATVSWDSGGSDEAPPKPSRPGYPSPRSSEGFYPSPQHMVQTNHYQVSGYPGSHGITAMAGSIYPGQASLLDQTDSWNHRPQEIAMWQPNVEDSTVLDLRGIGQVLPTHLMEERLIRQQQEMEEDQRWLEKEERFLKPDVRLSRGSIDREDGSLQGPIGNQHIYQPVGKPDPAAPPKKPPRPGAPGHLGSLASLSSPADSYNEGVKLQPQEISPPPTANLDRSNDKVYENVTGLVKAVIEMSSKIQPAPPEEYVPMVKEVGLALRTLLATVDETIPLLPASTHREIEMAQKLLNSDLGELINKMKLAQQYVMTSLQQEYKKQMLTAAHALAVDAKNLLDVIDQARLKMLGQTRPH
T4 sequence (Q05397 whole entry): as above
T3 sequence (P12931 whole entry): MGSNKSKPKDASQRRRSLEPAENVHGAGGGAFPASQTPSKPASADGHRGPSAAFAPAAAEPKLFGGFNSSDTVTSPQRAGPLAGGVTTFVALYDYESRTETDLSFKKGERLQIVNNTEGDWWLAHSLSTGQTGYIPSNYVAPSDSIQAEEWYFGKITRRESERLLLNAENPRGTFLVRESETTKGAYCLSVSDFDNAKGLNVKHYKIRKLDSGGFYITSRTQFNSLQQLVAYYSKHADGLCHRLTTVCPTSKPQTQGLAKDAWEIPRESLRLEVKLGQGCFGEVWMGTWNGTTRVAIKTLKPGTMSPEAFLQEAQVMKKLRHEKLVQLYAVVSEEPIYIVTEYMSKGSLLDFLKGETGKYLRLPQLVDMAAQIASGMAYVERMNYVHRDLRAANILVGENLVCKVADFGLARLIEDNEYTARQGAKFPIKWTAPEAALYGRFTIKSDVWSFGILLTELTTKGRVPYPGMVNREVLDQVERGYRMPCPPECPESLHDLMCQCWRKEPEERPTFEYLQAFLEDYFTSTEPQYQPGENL
T1 sequence (Q14289 whole entry): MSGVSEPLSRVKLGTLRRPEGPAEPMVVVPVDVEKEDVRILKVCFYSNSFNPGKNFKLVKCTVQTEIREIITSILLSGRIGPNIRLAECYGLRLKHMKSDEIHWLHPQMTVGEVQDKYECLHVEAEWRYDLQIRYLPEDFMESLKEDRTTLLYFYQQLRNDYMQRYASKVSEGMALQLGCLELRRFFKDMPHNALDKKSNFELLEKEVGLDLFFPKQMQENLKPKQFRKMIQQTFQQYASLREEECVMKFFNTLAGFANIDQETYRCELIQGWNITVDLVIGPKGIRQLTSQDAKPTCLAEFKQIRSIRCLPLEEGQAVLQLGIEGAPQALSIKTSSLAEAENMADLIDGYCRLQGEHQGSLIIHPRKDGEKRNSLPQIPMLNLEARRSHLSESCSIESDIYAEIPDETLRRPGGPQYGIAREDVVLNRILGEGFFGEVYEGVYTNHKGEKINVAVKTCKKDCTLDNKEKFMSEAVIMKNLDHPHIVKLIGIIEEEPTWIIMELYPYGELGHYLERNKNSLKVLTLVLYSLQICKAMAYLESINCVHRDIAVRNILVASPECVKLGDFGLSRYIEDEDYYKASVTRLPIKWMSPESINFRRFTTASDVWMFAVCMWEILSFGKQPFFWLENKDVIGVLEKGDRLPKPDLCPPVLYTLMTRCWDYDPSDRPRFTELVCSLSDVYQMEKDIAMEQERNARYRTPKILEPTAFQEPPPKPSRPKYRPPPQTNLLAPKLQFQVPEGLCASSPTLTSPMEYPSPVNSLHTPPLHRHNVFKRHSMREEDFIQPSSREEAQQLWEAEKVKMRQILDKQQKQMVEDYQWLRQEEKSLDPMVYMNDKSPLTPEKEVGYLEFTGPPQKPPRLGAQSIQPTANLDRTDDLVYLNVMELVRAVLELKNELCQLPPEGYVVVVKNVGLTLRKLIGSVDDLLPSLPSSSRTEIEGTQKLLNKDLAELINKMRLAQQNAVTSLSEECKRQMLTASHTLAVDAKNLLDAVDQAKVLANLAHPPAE

Compound: COc1ccc(C2CCCN2C(=O)Nc2cc(C(F)(F)F)ccc2N2CCOCC2)cc1 (stereo not shown) [Compound 3, 2-(4-methoxyphenyl)-N-[2-(morpholin-4-yl)-5-(trifluoromethyl)phenyl]pyrrolidine-1-carboxamide]
- Pyk2 activation [1]: does not activate Pyk2 or Src; also recorded: does not affect the kinase Pyk2
- wound closure when proliferation is blocked ([2]; 10 nM, 4 mM OH-urea, listed as D3): stimulates wound closure even when proliferation is blocked; also recorded: accelerates closure of circular wounds
- monolayer wound closure ([2]; 10 nM): Increased wound closure rates
- monolayer wound closure ([2]; 10 nM, listed as D3): accelerate the closure of circular wounds
- wound closure rate ([2]; 100 μM, Caco-2 on Collagen-I): Increased wound closure rates
- stimulation of wound closure under FAK blockade [2]: prevents the stimulation of wound healing by Compound 3
- stimulation of wound closure under FAK blockade ([2]; listed as D3): prevented D3 stimulation of monolayer wound closure; also recorded: prevents D3 stimulation of wound closure
- FAK activation ([3]; 10 pM to 1 nM): activation
- FAK activation ([3]; 1 nM): demonstrated FAK activation
- FAK activation (FAK-Tyr-397 phosphorylation) ([3]; 10 nM, Caco-2 cells, listed as D3): activating FAK; also recorded: activate FAK
- FAK-Y-397 phosphorylation under PTP PEST inhibition ([3]; 10 nM, PTP LYP inhibitor 540217 (50 uM), listed as D3): does not prevent D3 induction of FAK-Y-397; also recorded: stimulates Caco-2 FAK-Y-397 phosphorylation independently of PTP PEST inhibition
- FAK activation in presence of genistein ([3]; 100 ug/ml genistein, human Caco-2 cells, listed as D3): does not block D3 induction of FAK phosphorylation; also recorded: does not block D3 activation of FAK
- FAK activation, dose dependence ([3]; 10-1000 nM): dose dependently activates FAK
- specificity vs. Pyk2 ([3]; FAK activation at 10 nM vs. Pyk2): at least 100 ×
- basal FAK-Tyr-397 phosphorylation ([3]; ambient pressure, varying concentrations): increase basal FAK-Tyr-397 phosphorylation
- FAK activation ([3]; concentration not given): especially potent
- FAK autophosphorylation in presence of FAK inhibitor PF573228 ([3]; with PF573228): does not prevent Compound 3 from increasing FAK autophosphorylation
- ALT ([4]; remained within the normal range): slight elevation of ALT
- Histological evaluation of kidneys or livers ([4]; vs vehicle): no differences
- Serum creatinine ([4]; vs vehicle): not different
- postoperative body weight ([4]; vs vehicle): did not display further weight loss
- body weight [5]: lost less weight
- Src activation [6]: does not activate Pyk2 or Src; also recorded: does not affect
- total small bowel ulcer area [7]: substantial and statistically significant reduction in ulcer area; also recorded: markedly decreases total small bowel ulcer area
- % wound closure between day 1 and day 4 ([8]; 900 ug/kg IP every 6 hours): markedly higher; also recorded: stimulates ulcer healing
- ileal ulcer area ([8]; day 4, 900 ug/kg IP every 6 hours for 3 days): substantially smaller ulcers; also recorded: reduces ileal ulcer area; also recorded: ulcers appear smaller
- PTP1B-FAK interaction [9]: does not change FAK-PTPB association; also recorded: does not inhibit PTP1B-FAK interaction
- SHP2 dephosphorylation of a synthetic substrate ([10]; 100 nM, vs. positive control reaction): neither D3 nor D4 (100 nM) blocks SHP2 dephosphorylation
- SHP2 activity in vitro ([10]; concentration not given, listed as D3): does not activate SHP2; also recorded: does not alter SHP2 activity
- Caco-2 cell proliferation [11]: Neither Compound 1 nor Compound 3 stimulated Caco-2 cell proliferation
- Caco-2 proliferation (cell number) ([11]; 48 hours, listed as D3): cell number did not increase; also recorded: does not stimulate Caco-2 proliferation
